From patent US9302999B2, “Substituted triazoles as herbicides” (E. I. DU PONT DE NEMOURS AND COMPANY, priority 2012, dated 2016)

Assays:
Assay type in all cases: in vivo
[1] = tested on: bluegrass (annual bluegrass, Poa annua); assay: Test D pre-/postemergence: bluegrass
Excerpt: Seeds of plant species selected from bluegrass (annual bluegrass, Poa annua), blackgrass (Alopecurus myosuroides), canarygrass (Phalaris minor), chickweed (common chickweed, Stellaria media), galium (catchweed bedstraw, Galium aparine), bromegrass, downy (downy bromegrass, Bromus tectorum), field poppy (Papaver rhoeas), field violet (Viola arvensis), foxtail, green (green foxtail, Setaria viridis), deadnettle (henbit deadnettle, Lamium amplexicaule), ryegrass, Italian (Italian ryegrass, Lolium multiflorum), kochia (Kochia scoparia), lambsquarters (Chenopodium album), oilseed rape (Brassica napus), pigweed (Amaranthus retroflexus), Russian thistle (Salsola iberica), chamomile (scentless chamomile, Matricaria inodora), speedwell (bird's-eye speedwell, Veronica persica), barley, spring (spring barley, Hordeum vulgare), wheat, spring (spring wheat, Triticum aestivum), buckwheat, wild (wild buckwheat, Polygonum convolvulus), mustard, wild (wild mustard, Sinapis arvensis), oat, wild (wild oat, Avena fatua), radish, wild (wild radish, Raphanus raphanistrum), windgrass (Apera spica-venti), barley, winter (winter barley, Hordeum vulgare), and wheat, winter (winter wheat, Triticum aestivum) were planted into a silt loam soil and treated preemergence with test chemicals formulated in a non-phytotoxic solvent mixture which included a surfactant. At the same time, these same crop and weed species were planted in pots containing the planting medium comprising spaghnum peat moss, vermiculite, wetting agent and starter nutrients and treated with postemergence applications of the test chemicals formulated in the same manner. Plants ranged in height from 2 to 18 cm (1- to 4-leaf stage).
(§1) Treated plants and controls were maintained in a controlled growth environment for 14 to 21 days after which time all species were compared to controls and visually evaluated. Plant response ratings, summarized in Table D, are based on a scale of 0 to 100 where 0 is no effect and 100 is complete control. A dash (-) response means no test result.

[2] = tested on: rice (Oryza sativa); assay: Test C flooded paddy test: rice; settings: scale 0 to 100 (0 no effect, 100 complete control)
Summary of the method: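 Visual ratings from 0 (no effect) to 100 (complete control), made against untreated controls 13 to 15 days after treatment, express plant response. Compounds went directly into paddy water over 2-leaf stage plants in pots flooded to 3 cm.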

[3] = tested on: Russian thistle (Salsola iberica); assay: Test D pre-/postemergence: Russian thistle
Summary of the method: (§2)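 Species were sown in silt loam and sprayed preemergence, or grown in peat/vermiculite medium and sprayed postemergence at the 1- to 4-leaf stage (2–18 cm), with compounds in a surfactant-containing solvent. Injury was visually rated against untreated controls after 14–21 days, on a 0 (no effect) to 100 (complete control) scale.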

[4] = tested on: galium (catchweed bedstraw, Galium aparine); assay: Test D pre-/postemergence: galium
Summary of the method: as §2

[5] = tested on: corn (Zea mays); assay: Test F pre-/postemergence: corn
Excerpt: (§3) Seeds of plant species selected from corn (Zea mays), soybean (Glycine max), velvetleaf (Abutilon theophrasti), lambsquarters (Chenopodium album), poinsettia, wild (wild poinsettia, Euphorbia heterophylla), pigweed, palmer (palmer pigweed, Amaranthus palmeri), waterhemp (common waterhemp, Amaranthus rudis), surinam grass (Brachiaria decumbens), crabgrass, Brazil (Brazilian crabgrass, Digitaria horizontalis), panicum, fall (fall panicum Panicum dichotomiflorum), crabgrass, large (large crabgrass, Digitaria sanguinalis), foxtail, giant (giant foxtail, Setaria faberii), foxtail, green (green foxtail Setaria viridis), goosegrass (Eleusine indica), ragweed (common ragweed, Ambrosia elatior), barnyardgrass (Echinochloa crus-galli), sandbur (southern sandbur, Cenchrus echinatus), arrowleaf sida (Sida rhombifolia), ryegrass, Italian (Italian ryegrass, Lolium multiflorum), dayflower, VA (Virginia (VA) dayflower, Commelina virginica), field bindweed (Convolvulus arvensis), cocklebur (common cocklebur, Xanthium strumarium), morningglory (Ipomoea coccinea), nightshade (eastern black nightshade, Solanum ptycanthum), kochia (Kochia scoparia), nutsedge, yellow (yellow nutsedge, Cyperus esculentus), johnsongrass (Sorghum halepense), smartweed (ladysthumb smartweed, Polygonum persicaria), and beggarticks (hairy beggarticks, Bidens pilosa), were planted into a silt loam soil and treated preemergence with test chemicals formulated in a non-phytotoxic solvent mixture which included a surfactant. At the same time, plants selected from these crop and weed species and also pigweed (Amaranthus retroflexus), waterhemp_RES1 (ALS/Triazine resistant common waterhemp, Amaranthus rudis) and waterhemp_RES2 (ALS/HPPD resistant common waterhemp, Amaranthus rudis) were planted in pots containing a planting medium comprising spaghnum peat moss, vermiculite, wetting agent and starter nutrients treated with postemergence applications of some of the test chemicals formulated in the same manner. Plants ranged in height from 2 to 18 cm for postemergence treatments (1- to 4-leaf stage).
as §1, with “greenhouse” for “controlled growth environment”, “days,” for “days”, “E,” for “D,”

[6] = tested on: field bindweed (Convolvulus arvensis); assay: Test F pre-/postemergence: field bindweed
Excerpt: as §3
as §1, with “greenhouse” for “controlled growth environment”, “days,” for “days”, “E,” for “D,”

[7] = tested on: cocklebur (common cocklebur, Xanthium strumarium); assay: Test F pre-/postemergence: cocklebur; settings: Preemergence, scale 0 to 100
Excerpt: as §3
as §1, with “greenhouse” for “controlled growth environment”, “days,” for “days”, “E,” for “D,”

[8] = tested on: velvetleaf (Abutilon theophrasti); assay: Test F pre-/postemergence: velvetleaf; settings: Preemergence
Excerpt: as §3
as §1, with “greenhouse” for “controlled growth environment”, “days,” for “days”, “E,” for “D,”

[9] = Postemergence, 31 g ai/ha, scale 0 to 100 (0 no effect, 100 complete control)
[10] = Postemergence, 62 g ai/ha, scale 0 to 100 (0 no effect, 100 complete control)
[11] = Postemergence, 125 g ai/ha, scale 0 to 100, 0 no effect, 100 complete control
[12] = Postemergence, 250 g ai/ha, scale 0 to 100 (0 no effect, 100 complete control)
[13] = Postemergence, 16 g ai/ha, scale 0 to 100
[14] = Preemergence, 16 g ai/ha, scale 0 to 100, 0 no effect, 100 complete control
[15] = Preemergence, 31 g ai/ha, scale 0 to 100, 0 no effect, 100 complete control
[16] = Preemergence, 62 g ai/ha, scale 0 to 100
[17] = Preemergence, 125 g ai/ha, scale 0 to 100
[18] = Preemergence, 250 g ai/ha, scale 0 to 100
[19] = Postemergence, 8 g ai/ha, scale 0 to 100
[20] = Postemergence, 31 g ai/ha, scale 0 to 100
[21] = Postemergence, 62 g ai/ha, scale 0 to 100
[22] = Postemergence, 125 g ai/ha, scale 0 to 100

Cc1nn(-c2ccc(C(F)(F)F)cc2)nc1Oc1ccnc(C(F)(F)F)c1 [Compound 120]
Plant response rating: Bluegrass [1, 9]: 10
Plant response rating: Bluegrass [1, 10]: 40
Plant response rating: Bluegrass [1, 11]: 70
Plant response rating: Bluegrass [1, 12]: 95
Plant response rating, Bluegrass [1, 13]: 10
Plant response rating, Bluegrass [1, 14]: 0
Plant response rating, Bluegrass [1, 15]: 100
Plant response rating, Bluegrass [1, 16]: 100
Plant response rating, Bluegrass [1, 17]: 100
Plant response rating, Bluegrass [1, 18]: 100
Plant response rating, Rice ([2]; Flood (flooded paddy test), 125 g ai/ha, visual rating after 13 to 15 days): 70
Plant response rating, Rice ([2]; Flood (flooded paddy test), 250 g ai/ha, visual rating after 13 to 15 days): 80
Plant response rating, Rice ([2]; Flood, 62 g ai/ha): 60
Plant response rating: Russian Thistle [3, 9]: 95
Plant response rating: Russian Thistle [3, 10]: 98
Plant response rating: Russian Thistle [3, 11]: 100
Plant response rating: Russian Thistle [3, 12]: 100
Plant response rating, Russian Thistle [3, 13]: 95
Plant response rating, Russian Thistle [3, 14]: 100
Plant response rating, Russian Thistle [3, 15]: 100
Plant response rating, Russian Thistle [3, 16]: 100
Plant response rating, Russian Thistle [3, 17]: 100
Plant response rating, Russian Thistle [3, 18]: 100
Plant response rating: Galium [4, 9]: 60
Plant response rating: Galium [4, 10]: 70
Plant response rating: Galium [4, 11]: 98
Plant response rating: Galium [4, 12]: 100
Plant response rating, Galium [4, 13]: 50
Plant response rating, Galium [4, 14]: 0
Plant response rating, Galium [4, 15]: 15
Plant response rating, Galium [4, 16]: 65
Plant response rating, Galium [4, 17]: 100
Plant response rating, Galium [4, 18]: 100

COc1nn(-c2cccc(F)c2)nc1Cc1ccnc(C(F)(F)F)c1 [Compound 139]
Plant response rating, Corn [5, 14]: 0
Plant response rating, Corn [5, 15]: 0
Plant response rating, Corn [5, 16]: 0
Plant response rating, Corn [5, 17]: 0
Plant response rating, Corn [5, 18]: 5
Plant response rating, Field Bindweed [6, 14]: 0
Plant response rating, Field Bindweed [6, 15]: 0
Plant response rating, Field Bindweed [6, 16]: 0
Plant response rating, Field Bindweed [6, 17]: 0
Plant response rating, Field Bindweed [6, 18]: 20
Plant response rating, Cocklebur ([7]; 62 g ai/ha): 0
Plant response rating, Cocklebur ([7]; 125 g ai/ha): 0
Plant response rating, Velvetleaf ([8]; 16 g ai/ha, scale 0 to 100, 0 no effect, 100 complete control): 0
Plant response rating, Velvetleaf ([8]; 31 g ai/ha, scale 0 to 100, 0 no effect, 100 complete control): 0
Plant response rating, Velvetleaf ([8]; 125 g ai/ha, scale 0 to 100): 0
Plant response rating, Velvetleaf ([8]; 250 g ai/ha, scale 0 to 100): 65

Cc1nn(-c2ccnc(Cl)c2)nc1Cc1ccnc(C(F)(F)F)c1 [Compound 141]
Plant response rating, Corn [5, 19]: 15
Plant response rating, Corn [5, 13]: 15
Plant response rating, Corn [5, 20]: 20
Plant response rating, Corn [5, 21]: 20
Plant response rating, Corn [5, 22]: 30
Plant response rating, Field Bindweed [6, 19]: 50
Plant response rating, Field Bindweed [6, 13]: 60
Plant response rating, Field Bindweed [6, 20]: 70
Plant response rating, Field Bindweed [6, 21]: 80
Plant response rating, Field Bindweed [6, 22]: 85
